{
  "source": "patent US20180296683A1",
  "about": "“COMPOSITIONS AND METHODS FOR DISASSEMBLING AMYLOID FIBRILS” (The Board of Trustees of the University of Illinois, priority 2017, published 2018)",
  "format_in_all_cases": "biochemical",
  "key": {"Aβ40": {"biological_target": "T1, Aβ40 (Homo sapiens, UniProt P05067)", "T1 construct": "Amyloid protein (Aβ40) was purchased from GL Biochem Ltd. (Shanghai, China); purchased GL Biochem Ltd. (Shanghai, China)", "T1 sequence (P05067 672-711 limits assumed)": "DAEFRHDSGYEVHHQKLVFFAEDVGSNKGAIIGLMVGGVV", "assay": "Circular dichroism of Aβ40 secondary structure with fibril breakers", "details": "iAβ5 910 μM, 60.7 equiv; Aβ40 15 μM; 3 days", "description": "We used circular dichroism studies to further confirm the secondary structures of disassembled Aβ40 aggregates in the presence of mP-iAβ5 conjugates, PHPMA, or iAβ5. Aβ40 solutions were incubated alone for 24 h to form fibrils. […] As Aβ40 continues to aggregate, the negative peak at 198 nm was converted to the positive peak around 194 nm and a negative peak around 217 nm.\nFibril breakers (mP-iAβ5 conjugates, PHPMA, or iAβ5) were added to preformed Aβ40 fibrils after 24 h and coincubated for 3 days before the structure characterization by circular dichroism.\nCircular Dichroism (CD) spectroscopy. CD spectra of Aβ40 fibril solution incubated without or with fibril breakers (mP-iAβ5 conjugates, PHPMA, or iAβ5) were recorded in a JASCO J-815 Spectrometer (JASCO Co., Tokyo, Japan), using a quartz cuvette (1 mm path length). […] The spectra were taken as the average of three accumulations from 190 and 260 nm at a speed of 50 nm/min. All of the samples were incubated at 37° C. in 10 mM phosphate buffer solution (PBS) with a continuous agitation speed of 567 rpm. Spectra were calibrated by subtracting the buffer or sample solution baseline."}, "preformed Aβ40 fibrils [1]": {"biological_target": "T2, preformed Aβ40 fibrils (Homo sapiens, UniProt P05067)", "T2 construct": "Amyloid protein (Aβ40) was purchased from GL Biochem Ltd. (Shanghai, China); purchased GL Biochem Ltd. (Shanghai, China)", "T2 sequence (P05067 672-711 limits assumed)": "as above", "assay": "ThT fluorescence assay of Aβ40 fibril disassembly", "details": "15 μM Aβ40, PBS pH 7.4, 37° C., 3 days", "description": "ThT fluorescence assays were conducted in 96-well black plate (Thermo Scientific NUNC, catalog NO. 265301) at 37° C. with continuous shaking (567 rpm) in a BioTek Hybrid H1 plate reader. ThT fluorescence was recorded with 10 minutes reading intervals and 5 s shaking before first read (442 nm excitation, 482 nm emission). All samples were run in quadruple or more. At least three independent experiments were carried out for each ThT assay. Each well contained 10 mM PBS buffer solution (pH 7.4) and 20 μM ThT in a total volume of 200 μL. Aβ40 (15 μM, 1.0 equiv), iAβ5, control polymer 5, and mP-iAβ5 conjugates 4 of different molecular weights were added as needed. The concentrations of added samples were calculated based on Aβ40 (15 μM, 1.0 equiv).\nPreparation of Buffered ThT Solution. The ThT solution in 20 mM PBS was freshly prepared before use. […] The concentration of the above solution was determined by UV-Vis at 412 nm (ε=36000 M^−1 cm^−1). Based on the determined concentration of the ThT solution, ultrapure water and 100 mM PBS were further added to dilute the ThT solution to 40 μM in 20 mM PBS, pH 7.4 […]\nTo each well of 96-well plate, the buffered ThT solution (40 μM, 100 μL) and ultrapure water (80 μL) were added and mixed. […] The samples containing mature fibrils of Aβ40 and modulators were coincubated for another 3 days in plate reader. The fluorescence was monitored by ThT assays."}, "preformed Aβ40 fibrils [2]": {"biological_target": "T2, preformed Aβ40 fibrils", "assay": "Control incubations with preformed Aβ40 fibrils assessed by AFM and DLS", "details": "3 days of incubation", "description": "To evaluate the ability of mP-iAβ5 conjugates to disassemble amyloid fibrils, we conducted experiments in which mP-iAβ5 conjugates were incubated with preformed Aβ40 fibrils. Freshly prepared Aβ40 (15 μM) solutions were preincubated at 37° C. for 24 h, which is sufficiently long for mature fibrils to grow, as evidenced by AFM images and ThT fluorescence assays (FIG. 8). The preformed Aβ40 fibrils solution was then coincubated with 1.0 equiv of mP-iAβ5 conjugates of different molecular weights, and the morphology transformation of the fibril structures was monitored at 37° C. for 3 days by DLS, AFM imaging, and ThT fluorescence (we define an equiv of mP-iAβ5 as the molar ratio of polymer to Aβ40).\nThe molecular weight of mP-iAβ5 conjugate that completely disassembles preformed Aβ40 fibrils is 166 kDa. […] The disassembly of preformed fibrils by mP-iAβ5 conjugates was also quantitatively analyzed by DLS in solution phase. In agreement with AFM images, DLS results confirmed that all Aβ40 fibrils were transformed into dispersible sub-100 nm structures, and 0% of fibrils remained after 3 days of incubation (FIG. 2i). […] To investigate the effect of the PHPMA polymer backbone without iAβ5 moieties on Aβ40 disassembly, we incubated preformed Aβ40 fibrils in the presence of 1.0 equiv of 166 kDa PHPMA with and without 60.7 equiv of iAβ5 for 3 days.\nAtomic Force Microscopy (AFM). Samples for AFM studies were taken directly from the ThT assays, and 10 μL of each sample solution was loaded on freshly cleaved mica surface (Electron Microscopy Sciences, catalog NO. 71856-01). Samples were incubated for 5 minutes and rinsed with 5 drops of molecular biology grade water. The mica surface was blow-dried under nitrogen. AFM images were obtained on a MultiMode V (Bruker, Santa Barbara, USA) microscope in tapping mode. Ultrasharp silicon cantilevers (SCANASYST-ATR, Bruker) were used. All of the images were collected at a scan rate of 1 Hz and scan lines of 512.\nDynamic Light Scattering (DLS). Samples for DLS studies were prepared at the same condition as in ThT assays without adding ThT dye molecules. The DLS studies were carried out using a particle sizer NICOMP 380 ZLS."}},
  "data": [
    {"substance": "LPFFD [iAβ5]", "values": [
      {"measurement": "secondary structure by CD after coincubation with preformed Aβ40 fibrils", "setting": "Aβ40", "value": "remain β-sheet structures"},
      {"measurement": "ThT intensity during coincubation with Aβ40 fibrils", "setting": "preformed Aβ40 fibrils [1]", "value": "not accompanied by the decreased ThT intensity"},
      {"measurement": "effect on preformed fibrils according to AFM and DLS", "setting": "preformed Aβ40 fibrils [2]; 8.1 equiv of iAβ5 per Aβ40", "value": "remained unchanged"},
      {"measurement": "effect on preformed fibrils according to AFM and DLS", "setting": "preformed Aβ40 fibrils [2]; 16.7 equiv of iAβ5 per Aβ40", "value": "remained unchanged"},
      {"measurement": "effect on preformed fibrils according to AFM and DLS", "setting": "preformed Aβ40 fibrils [2]; 32.5 equiv of iAβ5 per Aβ40", "value": "remained unchanged"},
      {"measurement": "effect on preformed fibrils according to AFM and DLS", "setting": "preformed Aβ40 fibrils [2]; 60.7 equiv of iAβ5 per Aβ40", "value": "remained unchanged"},
      {"measurement": "effect on preformed fibrils according to AFM and DLS", "setting": "preformed Aβ40 fibrils [2]; 81.3 equiv of iAβ5 per Aβ40", "value": "remained unchanged"}
    ]}
  ]
}
